Source: patent US9884048B2, “ERK inhibitors” (Merck Sharp & Dohme Corp., priority 2014, dated 2018)

What follows are molecules tested against phosphorylated active hERK2 enzyme (Homo sapiens (Human), UniProt P28482). Settings: not given.
Chain of phosphorylated active hERK2 enzyme (P28482 whole entry): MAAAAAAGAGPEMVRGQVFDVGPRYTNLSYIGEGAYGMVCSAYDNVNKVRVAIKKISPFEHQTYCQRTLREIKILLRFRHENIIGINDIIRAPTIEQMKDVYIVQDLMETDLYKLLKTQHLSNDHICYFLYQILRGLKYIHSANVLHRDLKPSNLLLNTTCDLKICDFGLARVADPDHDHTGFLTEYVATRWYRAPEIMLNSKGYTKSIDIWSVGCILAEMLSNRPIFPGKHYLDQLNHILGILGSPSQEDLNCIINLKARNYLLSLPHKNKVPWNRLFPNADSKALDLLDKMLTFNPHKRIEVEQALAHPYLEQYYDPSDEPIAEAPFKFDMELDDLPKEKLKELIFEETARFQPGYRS

IC50 [nM]	Compound
122	CO[C@H]1CCCC[C@@H]1NC(=O)Nc1cc2cnn(-c3ccnc(C)c3)c2cn1 (racemic) [Example 145, Racemic 1-[(1S,2S) and (1R,2R)-2-methoxycyclohexyl]-3-[1-(2-methylpyridin-4-yl)-1H-pyrazolo[3,4-c]pyridin-5-yl)urea]
711	Cc1cc(-n2ncc3cc(NC(=O)N[C@H]4CCCC[C@@H]4NC(=O)c4ccccc4)ncc32)ccn1 (racemic) [Example 152, Racemic Trans N-[(1S,2S) and (1R, 2R)-2-({[1-(2-methylpyridin-4-yl)-1H-pyrazolo[3,4-c]pyridin-5-yl]carbamoyl}amino)cyclo-hexy]benzamide]
3.07	Cc1cc(-n2ncc3cc(NC(=O)N[C@H]4CN(C)C[C@@H]4c4cccc(F)c4)ncc32)ccn1 [Example 19, 1-[(3R,4S)-4-(3-fluorophenyl)-1-methylpyrrolidin-3-yl]-3-[1-(2-methylpyridin-4-yl)-1H-pyrazolo[3,4-c]pyridin-5-yl)urea]
7.93	Cc1cc(-n2ncc3cc(NC(=O)N[C@H]4CCC[C@H]4c4ccccc4)ncc32)ccn1 (racemic) [Example 148, Racemic 1-[1-(2-methylpyridin-4-yl)-1H-pyrazolo[3,4-c]pyridin-5-yl]-3-[(1S,2S) and (1R, 2R)-2-phenylcyclopentyl]urea]

Same assay, conditions: read-out: ERK2 IC50; IMAP-FP assay; 0.5 nM hERK2, 30 μM ATP; 10 point titration, 3 μM starting concentration

IC50 [nM]	Compound
332	Cc1cc(-n2ncc3cc(NC(=O)NCc4ccc(N5CCCC5=O)cc4)ncc32)ccn1 [Example 91, 1-[1-(2-methylpyridin-4-yl)-1H-pyrazolo[3,4-c]pyridin-5-yl]-3-[4-(2-oxopyrrolidin-1-yl)benzyl]urea]
16.4	Cc1cc(-n2ncc3cc(NC(=O)N[C@H]4CN(C)C[C@@H]4Oc4ccc(F)cc4)ncc32)ccn1 [Example 285, 1-[(3S,4S)-4-(4-fluorophenoxy)-1-methylpyrrolidin-3-yl]-3-[1-(2-methylpyridin-4-yl)-1H-pyrazolo[3,4-c]pyridin-5-yl]urea]
195	Cc1cc(-n2ncc3cc(NC(=O)NCC(c4ccc(F)cc4)N4CCCCC4)ncc32)ccn1 (centres unmarked) [Example 54, 1-[2-(4-fluorophenyl)-2-piperidin-1-ylethyl]-3-[1-(2-methylpyridin-4-yl)-1H-pyrazolo[3,4-c]pyridin-5-yl)urea]
188	C[C@@H](NC(=O)Nc1cc2cnn(-c3ccc(F)cc3)c2c(COCCN2CCOCC2)n1)c1ccccc1 [Example 244, 1-{1-(4-fluorophenyl)-7-[(2-morpholin-4-ylethoxy)methyl]-1H-pyrazolo[3,4-c]pyridin-5-y1}-3-[(1R)-1-phenylethyl]urea]
0.579	CN1C[C@H](NC(=O)Nc2cc3cnn(-c4ccc(F)cc4)c3cn2)[C@@H](c2ccccc2)C1 [Example 208, 1-[1-(4-fluorophenyl)-1H-pyrazolo[3,4-c]pyridin-5-yl]-3-[(3R,4S)-1-methyl-4-phenylpyrrolidin-3-yl]urea]
44.9	CCn1ncc2cc(NC(=O)N[C@@H](c3ccccc3)C(C)(C)O)nc(OC)c21 [Example 257, 1-(1-ethyl-7-methoxy-1H-pyrazolo[3,4-c]pyridin-5-yl)-3-[(1S)-2-hydroxy-2-methyl-1-phenylpropyl]urea]
1630	Cc1cc(-n2ncc3cc(NC(=O)NCc4cnn(-c5ccc(F)cc5)c4)ncc32)ccn1 [Example 60, 1-{[1-(4-fluorophenyl)-1H-pyrazol-4-yl]methyl}-3-[1-(2-methylpyridin-4-yl)-1H-pyrazolo[3,4-c]pyridin-5-yl]urea]
20.8	Cn1cc(-n2ncc3cc(NC(=O)NCc4ccc(F)c(Cl)c4)ncc32)cn1 [Example 218, 1-(3-chloro-4-fluorobenzyl)-3-[1-(1-methyl-1H-pyrazol-4-yl)-1H-pyrazolo[3,4-c]pyridin-5-yl]urea]
26.5	Cc1cc(-n2ncc3cc(NC(=O)NCC4CN(c5ccccc5)CCO4)ncc32)ccn1 (centres unmarked) [Example 79, 1-[1-(2-methylpyridin-4-yl)-1H-pyrazolo[3,4-c]pyridin-5-yl]-3-[(4-phenylmorpholin-2-yl)methyl]urea]
100	CCn1ncc2cc(NC(=O)N[C@H](C)c3ccccc3)nc(OC)c21 [Example 256, 1-(1-ethyl-7-methoxy-1H-pyrazolo[3,4-c]pyridin-5-yl)-3-[(1R)-1-phenylethyl]urea]
0.509	Cc1cc(-n2ncc3cc(NC(=O)N[C@H]4CN(C)C[C@@H]4c4ccccc4C(F)(F)F)ncc32)ccn1 [Example 191, 1-[1-(2-methylpyridin-4-yl)-1H-pyrazolo[3,4-c]pyridin-5-yl]-3-{(3R,4S)-1-methyl-4-[2-(trifluoromethyl)-phenyl]pyrrolidin-3-yl}urea]
11.7	Cc1cc(-n2ncc3cc(NC(=O)N[C@@H]4CN(C)C[C@H]4c4ccccc4C)ncc32)ccn1 [Example 190, 1-[(3S,4R)-1-methyl-4-(2-methylphenyl)pyrrolidin-3-yl]-3-[1-(2-methylpyridin-4-yl)-1H-pyrazolo[3,4-c]pyridin-5-yl]urea]
40.1	C[C@@H](NC(=O)Nc1cc2cnn(-c3ccc(F)cc3)c2c(CO)n1)c1ccccc1 [Example 240, 1-[1-(4-fluorophenyl)-7-(hydroxymethyl)-1H-pyrazolo[3,4-c]pyridin-5-yl]-3-[(1R)-1-phenylethyl]urea]
914	Cc1cc(-n2ncc3cc(NC(=O)N[C@@H](c4ccccc4)C(F)F)ncc32)ccn1 [Example 81, 1-[(1S)-2,2-difluoro-1-phenylethyl]-3-[1-(2-methylpyridin-4-yl)-1H-pyrazolo[3,4-c]pyridin-5-yl)urea]
46.4	CO[C@H]1CN(C)C[C@@H]1NC(=O)Nc1cc2cnn(-c3ccnc(C)c3)c2cn1 [Example 291, 1-[(3S,4S)-4-methoxy-1-methylpyrrolidin-3-yl]-3-[1-(2-methylpyridin-4-yl)-1H-pyrazolo[3,4-c]pyridin-5-yl]urea]
7.84	Cc1cc(-n2ncc3cc(NC(=O)N[C@H](C)c4ccccn4)ncc32)ccn1 [Example 204, 1-[1-(2-methylpyridin-4-yl)-1H-pyrazolo[3,4-c]pyridin-5-yl]-3-[(1R)-1-pyridin-2-ylethyl]urea]
54.4	Cc1cc(-n2ncc3cc(NC(=O)NC4CNCC4c4ccccc4)ncc32)ccn1 (centres unmarked) [Example 63, 1-[1-(2-methylpyridin-4-yl)-1H-pyrazolo[3,4-c]pyridin-5-yl]-3-(4-phenylpyrrolidin-3-yl)urea]
19.8	O=C(NCc1ccccc1)Nc1cc2cnn(-c3ccc(F)cc3)c2cn1 [Example 37, 1-benzyl-3-[1-(4-fluorophenyl)-1H-pyrazolo[3,4-c]pyridin-5-yl)urea]
143	C[C@@H](NC(=O)Nc1cc2cnn(CC3COC3)c2c(CO)n1)c1ccccc1 [Example 315, 1-[7-(hydroxymethyl)-1-(oxetan-3-ylmethyl)-1H-pyrazolo[3,4-c]pyridin-5-yl]-3-[(1R)-1-phenylethyl]urea]
89.3	CCN(CC)C(=O)[C@@H](NC(=O)Nc1cc2cnn(-c3ccnc(C)c3)c2cn1)c1ccccc1 [Example 144, (2S)-N,N-diethyl-2-({[1-(2-methylpyridin-4-yl)-1H-pyrazolo[3,4-c]pyridin-5-yl]carbamoyl}amino)-2-phenylethanamide]
96.6	Cc1cc(-n2ncc3cc(NC(=O)NCc4cc(C)nn4C)ncc32)ccn1 [Example 119, 1-[(1,3-dimethyl-1H-pyrazol-5-yl)methyl]-3-[1-(2-methylpyridin-4-yl)-1H-pyrazolo[3,4-c]pyridin-5-yl)urea]
235	Cc1cc(-n2ncc3cc(NC(=O)N[C@H]4[C@H](c5ccccc5C)CN(C)C4(C)C)ncc32)ccn1 [Example 102, 1-[1-(2-methylpyridin-4-yl)-1H-pyrazolo[3,4-c]pyridin-5-yl]-3-[(3S,4R)-1,2,2-trimethyl-4-(2-methylphenyl)pyrrolidin-3-yl)urea]
